US12715896B2 (priority 2020, dated 2026)
Non-standard residues stand in square brackets, D forms with d. Residues, ends and D or L forms follow the SMILES beside them. *: point of attachment. Met(O2) = CS(=O)(=O)CC[C@H](N)C(=O)O; Cha = N[C@@H](CC1CCCCC1)C(=O)O; Tle = CC(C)(C)[C@H](N)C(=O)O; Nva = CCC[C@H](N)C(=O)O; Cbz = O=C(OCc1ccccc1)*; Boc = CC(C)(C)OC(=O)*

Target: T1, SARS-CoV-2 M^pro (Severe acute respiratory syndrome coronavirus 2, UniProt P0DTD1)
Assay: FRET-based enzymatic assay for SARS-CoV-2 main protease
Type: biochemical
Conditions: not given

SMILES	IC50 [nM]
CCC[C@H](NC(=O)[C@H](CC(C)C)NC(=O)[C@H](CC(C)C)NC(=O)OCc1ccccc1)C(=O)C(=O)NC1CC1 [Jun8-18-4]	340
CCC[C@H](NC(C)=O)C(=O)N[C@@H](CC(C)C)C(=O)N[C@@H](CCSC)C(=O)C(=O)NC1CC1 [Jun9-24-5]	640
CCC[C@@H](C=O)NC(=O)[C@H](CC(C)C)NC(=O)[C@H](CC(C)C)NC(C)=O [Jun9-48-3] (Ac-Leu-Leu-[Nva]-aldehyde)	38500
CC(C)C[C@H](NC(=O)CNC(=O)OCc1ccccc1)C(=O)N[C@@H](CCS(C)(=O)=O)C(=O)C(=O)NC1CC1 [Jun9-56-2]	130
CC(=O)N[C@@H](Cc1ccccc1)C(=O)N[C@@H](CC(C)C)C(=O)N[C@@H](CCS(C)(=O)=O)C(=O)C(=O)NC1CC1 [Jun9-56-3]	140
CC(=O)N[C@@H](Cc1ccccc1)C(=O)N[C@@H](CC(C)C)C(=O)N[C@@H](CC[S+](C)[O-])C(=O)C(=O)NC1CC1 (stereo partly drawn) [Jun9-24-4]	290
CCC[C@H](NC(=O)[C@H](CC(C)C)NC(=O)[C@H](Cc1ccccc1)NC(=O)OCc1ccccc1)C(=O)C(=O)NC1CC1 [Jun8-29-4]	480
CSCC[C@H](NC(=O)[C@H](CC(C)C)NC(=O)[C@H](CC(C)C)NC(C)=O)C(=O)C(=O)NCc1ccccc1 [Jun9-11-5]	1770
CSCC[C@H](NC(=O)[C@H](CC(C)C)NC(=O)[C@H](CC(C)C)NC(=O)OCc1ccccc1)C(=O)C(=O)NC1CC1 [Jun8-43-3]	2800
CSCC[C@@H](C=O)NC(=O)[C@H](CC(C)C)NC(=O)[C@H](Cc1ccccc1)NC(C)=O [Jun9-2-5] (Ac-Phe-Leu-Met-aldehyde)	270
CC(C)[C@H](NC(=O)OCc1ccccc1)C(=O)N[C@H](C=O)Cc1ccccc1 [calpain inhibitor III (MDL28170) (57), calpain inhibitor III] (Cbz-Val-Phe-aldehyde)	> 20000
CSCC[C@@H](C=O)NC(=O)[C@H](CC(C)C)NC(=O)[C@H](CC(C)C)NC(=O)OC(C)(C)C [Jun9-2-4] (Boc-Leu-Leu-Met-aldehyde)	390
CC(=O)N[C@@H](CC(C)C)C(=O)N[C@@H](CC(C)C)C(=O)N[C@@H](CC[S+](C)[O-])C(=O)C(=O)NC1CC1 (stereo partly drawn) [Jun9-59-2]	360
CCC[C@H](NC(=O)[C@H](CC(C)C)NC(=O)[C@H](CC(C)C)NC(C)=O)C(=O)C(=O)NC1CC1 [Jun9-49-1]	5890
CSCC[C@@H](C=O)NC(=O)[C@H](CC(C)C)NC(=O)OC(C)(C)C [Jun9-2-3] (Boc-Leu-Met-aldehyde)	> 20000
CSCC[C@H](NC(=O)[C@H](CC(C)C)NC(=O)[C@H](CC1CCCCC1)NC(C)=O)C(=O)C(=O)NC1CC1 [Jun9-66-4]	220
CC(C)C[C@H](NC(=O)CNC(=O)OCc1ccccc1)C(=O)N[C@@H](CC[S+](C)[O-])C(=O)C(=O)NC1CC1 (stereo partly drawn) [Jun9-24-1]	510
CSCC[C@@H](C=O)NC(=O)[C@H](CC(C)C)NC(=O)OCc1ccccc1 [Jun8-102-2] (Cbz-Leu-Met-aldehyde)	910

SMILES	IC50 [nM]
CSCC[C@@H](C=O)NC(=O)[C@H](CC(C)C)NC(C)=O [Jun8-102-1] (Ac-Leu-Met-aldehyde)	4770
CSCC[C@@H](C=O)NC(=O)[C@H](CC(C)C)NC(=O)[C@H](CC1CCCCC1)NC(C)=O [Jun9-66-2] (Ac-[Cha]-Leu-Met-aldehyde)	290
CSCC[C@H](NC(=O)[C@H](CC(C)C)NC(=O)[C@H](Cc1ccccc1)NC(C)=O)C(=O)C(=O)NC1CC1 [Jun9-24-3]	460
CC(=O)N[C@@H](CC1CCCCC1)C(=O)N[C@@H](CC(C)C)C(=O)N[C@@H](CCS(C)(=O)=O)C(=O)C(=O)NC1CC1 [Jun9-82-2]	100
CCC[C@H](NC(=O)[C@H](CC(C)C)NC(=O)OCc1ccccc1)C(=O)C(=O)NC1CC1 [Jun8-18-2]	> 20000
CSCC[C@H](NC(=O)[C@H](CC(C)C)NC(=O)[C@H](CC(C)C)NC(C)=O)C(=O)C(=O)NC1CC1 [Jun9-11-3]	540
CC(=O)N[C@@H](CC1CCCCC1)C(=O)N[C@@H](CC(C)C)C(=O)N[C@@H](CC[S+](C)[O-])C(=O)C(=O)NC1CC1 (stereo partly drawn) [Jun9-87-4]	270
CSCC[C@H](NC(=O)[C@H](CC(C)C)NC(=O)CNC(=O)OCc1ccccc1)C(=O)C(=O)NC1CC1 [Jun9-47-4]	1200
CSCC[C@@H](C=O)NC(=O)[C@H](CC(C)C)NC(=O)[C@H](CC(C)C)NC(=O)OCc1ccccc1 [Jun8-61-4] (Cbz-Leu-Leu-Met-aldehyde)	110
CSCC[C@H](NC(=O)[C@H](CC(C)C)NC(=O)[C@H](CC(C)C)NC(C)=O)C(=O)C(=O)NC(C)C [Jun9-11-4]	5990
CC(=O)N[C@@H](CC(C)C)C(=O)N[C@@H](CC(C)C)C(=O)N[C@@H](CCS(C)(=O)=O)C(=O)C(=O)NC1CC1 [Jun9-65-1]	180
CSCC[C@H](NC(=O)[C@H](CC1CCCCC1)NC(=O)[C@@H](NC(C)=O)C(C)(C)C)C(=O)C(=O)NC1CC1 [Jun9-66-3]	1520
CCC[C@H](NC(=O)[C@H](CC(C)C)NC(=O)[C@@H](NC(=O)OCc1ccccc1)C(C)C)C(=O)C(=O)NC1CC1 [Jun8-29-2]	480
CCC[C@@H](C=O)NC(=O)[C@H](CC(C)C)NC(=O)CNC(=O)OCc1ccccc1 [Jun9-52-3] (Cbz-Gly-Leu-[Nva]-aldehyde)	> 20000
CC(=O)N[C@@H](CC(C)C)C(=O)N[C@@H](CC(C)C)C(=O)N[C@H](C=O)CCS(C)(=O)=O [Jun9-58-1] (Ac-Leu-Leu-[Met(O2)]-aldehyde)	490
CSCC[C@@H](C=O)NC(=O)[C@H](CC1CCCCC1)NC(=O)[C@@H](NC(C)=O)C(C)(C)C [Jun9-66-1] (Ac-[Tle]-[Cha]-Met-aldehyde)	320
CCC[C@H](NC(=O)[C@H](CC(C)C)NC(=O)CNC(=O)OCc1ccccc1)C(=O)C(=O)NC1CC1 [Jun9-52-4]	17700

Same assay, conditions: read-out: inhibition against M^pro in primary screening

SMILES	inhibition at 20 µM [%]
CC(C)C[C@@H](C=O)NC(=O)[C@H](CC(C)C)NC(=O)[C@H](CC(C)C)NC(=O)OCc1ccccc1 [MG-132 (43), MG-132] (Cbz-Leu-Leu-Leu-aldehyde)	> 60
CC(C)(C)NC(=O)N[C@H](C(=O)N1C[C@H]2[C@@H]([C@H]1C(=O)NC(CC1CCC1)C(=O)C(N)=O)C2(C)C)C(C)(C)C (stereo partly drawn) [Boceprevir (28), Boceprevir]	> 60
COc1ccc2c(O[C@@H]3CC4C(=O)N[C@]5(C(=O)NS(=O)(=O)C6CC6)C[C@@H]5/C=C\CCCCN(C)C(=O)C4C3)cc(-c3nc(C(C)C)cs3)nc2c1C (stereo partly drawn) [Simeprevir (24), Simeprevir]	> 60
CCCC[C@H](NC(=O)[C@@H]1[C@@H]2[C@H](CN1C(=O)[C@@H](NC(=O)NC1(CS(=O)(=O)C(C)(C)C)CCCCC1)C(C)(C)C)C2(C)C)C(=O)C(=O)NC1CC1 [Narlaprevir (29), Narlaprevir]	> 60

Target: T1, SARS-CoV-2 M^pro
Assay: not given
Type: binding
Conditions: melting temperature with compound; DMSO 55.74; 30 μM compound

SMILES	2019-nCoV 3CL TSA Tm
CC(C)C[C@@H](C=O)NC(=O)[C@@H](NS(=O)(=O)c1ccc(F)cc1)C(C)C [Calpain inhibitor VI (58), Calpain inhibitor VI]	55.46 ± 0.14 °C
CC(C)[C@H](NC(=O)OCc1ccccc1)C(=O)N[C@H](C=O)Cc1ccccc1 [calpain inhibitor III (MDL28170) (57), calpain inhibitor III] (Cbz-Val-Phe-aldehyde)	55.36 ± 0.14 °C
CC(C)(C)NC(=O)N[C@H](C(=O)N1C[C@H]2[C@@H]([C@H]1C(=O)NC(CC1CCC1)C(=O)C(N)=O)C2(C)C)C(C)(C)C (stereo partly drawn) [Boceprevir (28), Boceprevir]	62.41 ± 0.21/6.67 °C
CCCC[C@H](NC(=O)[C@@H]1[C@@H]2[C@H](CN1C(=O)[C@@H](NC(=O)NC1(CS(=O)(=O)C(C)(C)C)CCCCC1)C(C)(C)C)C2(C)C)C(=O)C(=O)NC1CC1 [Narlaprevir (29), Narlaprevir]	60.92 ± 0.14/5.18 °C
CCCC[C@@H](C=O)NC(=O)[C@H](CC(C)C)NC(=O)OCc1ccccc1 [Calpeptin (56), Calpeptin]	56.84 ± 0.00 °C
CCC[C@@H](C=O)NC(=O)[C@H](CC(C)C)NC(=O)[C@H](CC(C)C)NC(=O)OCc1ccccc1 [MG-115 (60), MG-115] (Cbz-Leu-Leu-[Nva]-aldehyde)	60.51 ± 0.28 °C
CSCC[C@@H](C=O)NC(=O)[C@H](CC(C)C)NC(=O)[C@H](CC(C)C)NC(C)=O [Calpain inhibitor II (61), Calpain inhibitor II] (Ac-Leu-Leu-Met-aldehyde)	62.93 ± 0.14 °C

Same assay, conditions: shift vs DMSO; 30 μM compound

SMILES	2019-nCoV 3CL TSA ΔTm [°C]
CC(C)C[C@@H](C=O)NC(=O)[C@@H](NS(=O)(=O)c1ccc(F)cc1)C(C)C [Calpain inhibitor VI (58), Calpain inhibitor VI]	−0.28
CC(C)[C@H](NC(=O)OCc1ccccc1)C(=O)N[C@H](C=O)Cc1ccccc1 [calpain inhibitor III (MDL28170) (57), calpain inhibitor III] (Cbz-Val-Phe-aldehyde)	−0.38
CCCC[C@@H](C=O)NC(=O)[C@H](CC(C)C)NC(=O)OCc1ccccc1 [Calpeptin (56), Calpeptin]	1.1
CCC[C@@H](C=O)NC(=O)[C@H](CC(C)C)NC(=O)[C@H](CC(C)C)NC(=O)OCc1ccccc1 [MG-115 (60), MG-115] (Cbz-Leu-Leu-[Nva]-aldehyde)	4.77
CSCC[C@@H](C=O)NC(=O)[C@H](CC(C)C)NC(=O)[C@H](CC(C)C)NC(C)=O [Calpain inhibitor II (61), Calpain inhibitor II] (Ac-Leu-Leu-Met-aldehyde)	6.65
